From patent US9399649B2, “Compounds for treating spinal muscular atrophy” (PTC Therapeutics Inc., priority 2012, dated 2016)
One block for each compound: values may come before it.

How the values were obtained:
[1] = system: full length SMN2 minigene mRNA containing SMN2 exon 7; assay: SMN2 minigene mRNA splicing RT-qPCR assay in cultured cells; type: cell-based, human; conditions: Homo sapiens, HEK293-H; HEK293H cells stably transfected with SMN2-A minigene, 24 hours, 7-point concentration curve; concentration giving 1.5-fold full length SMN2 mRNA vs vehicle; read-out: EC1.5x for production of full length SMN2 mRNA
Outline: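 HEK293H cells stably carrying SMN2-A minigene treated 24 h (37 °C) with compound, 7-point 3.16-fold dilution, duplicates. Multiplex RT-qPCR on lysate with exon 7/luciferase primers and exon 7–8 junction probe (minigene-specific). Full-length transcript normalised to GAPDH by modified ΔΔCt, expressed relative to vehicle-treated cells.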

Smn protein = Smn protein assay in cultured cells (SMN HTRF); type: cell-based, human; conditions: SMA patient fibroblast cells (GM03813), 48 hours; for EC1.5x for Smn protein expression: 7-point concentration curve, concentration producing 1.5 times Smn protein vs DMSO vehicle; for maximum fold (Fold) increase of Smn protein: 7-point concentration data, relative to vehicle control
Outline: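 SMA patient fibroblasts, 5,000 per well in DMEM-10% FBS, exposed 48 h at 37° C. to a 7-point, 3.16-fold compound series in triplicate. RIPA lysates read by SMN HTRF (665/620 nm, overnight at room temperature); ΔF over blank expressed as fold of vehicle.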

melting point: 240 to 242 °C
SMILES: Cc1cn2cc(-c3cc4ccc(N5CCN(CCO)CC5)cc4c(=O)o3)cc2c(C)n1 [Cpd 79, 3-(1,3-dimethylpyrrolo[1,2-a]pyrazin-7-yl)-7-[4-(2-hydroxyethyl)piperazin-1-yl]-1H-isochromen-1-one]
EC (1.5-fold) [1]: ≤ 0.1 µM
EC1.5x for Smn protein expression (Smn protein): **** (an EC1.5×≦0.3 nM is indicated by four stars (****))
maximum fold (Fold) increase of Smn protein (Smn protein): **** (a fold increase between >1.5 and ≦1.65 is indicated by four stars (****))

melting point: 220 to 222 °C
SMILES: Cc1cn2cc(-c3cc4ccc(N5CCN6CCC[C@H]6C5)cc4c(=O)o3)cc2c(C)n1 [Cpd 80, 3-(1,3-dimethylpyrrolo[1,2-a]pyrazin-7-yl)-7-[(8aS)-hexahydropyrrolo[1,2-a]pyrazin-2(1H)-yl]-1H-isochromen-1-one]
EC (1.5-fold) [1]: ≤ 0.1 µM
EC1.5x for Smn protein expression (Smn protein): **** (an EC1.5×≦0.3 nM is indicated by four stars (****))
maximum fold (Fold) increase of Smn protein (Smn protein): **** (a fold increase between >1.5 and ≦1.65 is indicated by four stars (****))

melting point: 218 to 220 °C
SMILES: Cc1cn2cc(-c3cc4ccc(N5CCN6CCC[C@@H]6C5)cc4c(=O)o3)cc2c(C)n1 [Cpd 81, 3-(1,3-dimethylpyrrolo[1,2-a]pyrazin-7-yl)-7-[(8aR)-hexahydropyrrolo[1,2-a]pyrazin-2(1H)-yl]-1H-isochromen-1-one]
EC (1.5-fold) [1]: ≤ 0.1 µM
EC1.5x for Smn protein expression (Smn protein): **** (an EC1.5×≦0.3 nM is indicated by four stars (****))
maximum fold (Fold) increase of Smn protein (Smn protein): ***** (a fold increase >1.65 is indicated by five stars (*****))

melting point: 244 to 246 °C
SMILES: CCCN1CCN(c2ccc3cc(-c4cn5cc(C)nc(C)c5n4)oc(=O)c3c2)CC1 [Cpd 82, 3-(6,8-dimethylimidazo[1,2-a]pyrazin-2-yl)-7-(4-propylpiperazin-1-yl)-1H-isochromen-1-one]
EC (1.5-fold) [1]: ≤ 0.1 µM
EC1.5x for Smn protein expression (Smn protein): **** (an EC1.5×≦0.3 nM is indicated by four stars (****))
maximum fold (Fold) increase of Smn protein (Smn protein): ***** (a fold increase >1.65 is indicated by five stars (*****))

melting point: 300 to 302 °C
SMILES: Cc1cn2cc(-c3cc4ccc(N5CCN(C(C)(C)C)CC5)cc4c(=O)o3)nc2c(C)n1 [Cpd 83, 7-(4-tert-butylpiperazin-1-yl)-3-(6,8-dimethylimidazo[1,2-a]pyrazin-2-yl)-1H-isochromen-1-one]
EC (1.5-fold) [1]: 0.1 to 0.3 µM
EC1.5x for Smn protein expression (Smn protein): *** (an EC1.5× between >0.3 nM and ≦1 nM is indicated by three stars (***))
maximum fold (Fold) increase of Smn protein (Smn protein): **** (a fold increase between >1.5 and ≦1.65 is indicated by four stars (****))

melting point: 260 °C (dec.)
SMILES: Cc1cn2cc(-c3cc4ccc(N5CCN(C6CC6)CC5)cc4c(=O)o3)nc2c(C)n1 [Cpd 84, 7-(4-cyclopropylpiperazin-1-yl)-3-(6,8-dimethylimidazo[1,2-a]pyrazin-2-yl)-1H-isochromen-1-one]
EC (1.5-fold) [1]: 0.1 to 0.3 µM
EC1.5x for Smn protein expression (Smn protein): *** (an EC1.5× between >0.3 nM and ≦1 nM is indicated by three stars (***))
maximum fold (Fold) increase of Smn protein (Smn protein): ***** (a fold increase >1.65 is indicated by five stars (*****))

melting point: 192 to 194 °C
SMILES: COCCN1CCN(c2ccc3cc(-c4cn5cc(C)nc(C)c5n4)oc(=O)c3c2)CC1 [Cpd 85, 3-(6,8-dimethylimidazo[1,2-a]pyrazin-2-yl)-7-[4-(2-methoxyethyl)piperazin-1-yl]-1H-isochromen-1-one]
EC (1.5-fold) [1]: 0.1 to 0.3 µM
EC1.5x for Smn protein expression (Smn protein): *** (an EC1.5× between >0.3 nM and ≦1 nM is indicated by three stars (***))
maximum fold (Fold) increase of Smn protein (Smn protein): ***** (a fold increase >1.65 is indicated by five stars (*****))

melting point: 243 to 245 °C
SMILES: Cc1cn2cc(-c3cc4ccc(N5CCN(CC(C)C)CC5)cc4c(=O)o3)nc2c(C)n1 [Cpd 86, 3-(6,8-dimethylimidazo[1,2-a]pyrazin-2-yl)-7-[4-(2-methylpropyl)piperazin-1-yl]-1H-isochromen-1-one]
EC (1.5-fold) [1]: ≤ 0.1 µM
maximum fold (Fold) increase of Smn protein (Smn protein): *** (a fold increase between >1.35 and ≦1.5 is indicated by three stars (***))

melting point: 279 to 281 °C
SMILES: Cc1cn2cc(-c3cc4ccc(N5CCN(C6CCC6)CC5)cc4c(=O)o3)nc2c(C)n1 [Cpd 87, 7-(4-cyclobutylpiperazin-1-yl)-3-(6,8-dimethylimidazo[1,2-a]pyrazin-2-yl)-1H-isochromen-1-one]
EC (1.5-fold) [1]: ≤ 0.1 µM
EC1.5x for Smn protein expression (Smn protein): **** (an EC1.5×≦0.3 nM is indicated by four stars (****))
maximum fold (Fold) increase of Smn protein (Smn protein): **** (a fold increase between >1.5 and ≦1.65 is indicated by four stars (****))

SMILES: Cc1cn2cc(-c3cc4ccc(C5=CCNCC5)cc4c(=O)o3)nc2c(C)n1 [Cpd 88, 3-(6,8-dimethylimidazo[1,2-a]pyrazin-2-yl)-7-(1,2,3,6-tetrahydropyridin-4-yl)-1H-isochromen-1-one]
EC (1.5-fold) [1]: ≤ 0.1 µM
EC1.5x for Smn protein expression (Smn protein): **** (an EC1.5×≦0.3 nM is indicated by four stars (****))
maximum fold (Fold) increase of Smn protein (Smn protein): **** (a fold increase between >1.5 and ≦1.65 is indicated by four stars (****))
melting point: 266 °C (dec.)

SMILES: Cc1cn2cc(-c3cc4ccc(C5=CCN(C)CC5)cc4c(=O)o3)nc2c(C)n1 [Cpd 89, 3-(6,8-dimethylimidazo[1,2-a]pyrazin-2-yl)-7-(1-methyl-1,2,3,6-tetrahydropyridin-4-yl)-1H-isochromen-1-one]
EC (1.5-fold) [1]: ≤ 0.1 µM
EC1.5x for Smn protein expression (Smn protein): **** (an EC1.5×≦0.3 nM is indicated by four stars (****))
maximum fold (Fold) increase of Smn protein (Smn protein): **** (a fold increase between >1.5 and ≦1.65 is indicated by four stars (****))
melting point: 240 to 242 °C

SMILES: CCN1CC=C(c2ccc3cc(-c4cn5cc(C)nc(C)c5n4)oc(=O)c3c2)CC1 [Cpd 90, 3-(6,8-dimethylimidazo[1,2-a]pyrazin-2-yl)-7-(1-ethyl-1,2,3,6-tetrahydropyridin-4-yl)-1H-isochromen-1-one]
EC (1.5-fold) [1]: ≤ 0.1 µM
EC1.5x for Smn protein expression (Smn protein): **** (an EC1.5×≦0.3 nM is indicated by four stars (****))
maximum fold (Fold) increase of Smn protein (Smn protein): ***** (a fold increase >1.65 is indicated by five stars (*****))
melting point: 227 to 229 °C

SMILES: Cc1cn2cc(-c3cc4ccc(C5=CCN(C(C)C)CC5)cc4c(=O)o3)nc2c(C)n1 [Cpd 91, 3-(6,8-dimethylimidazo[1,2-a]pyrazin-2-yl)-7-[1-(propan-2-yl)-1,2,3,6-tetrahydropyridin-4-yl]-1H-isochromen-1-one]
EC (1.5-fold) [1]: ≤ 0.1 µM
EC1.5x for Smn protein expression (Smn protein): *** (an EC1.5× between >0.3 nM and ≦1 nM is indicated by three stars (***))
maximum fold (Fold) increase of Smn protein (Smn protein): *** (a fold increase between >1.35 and ≦1.5 is indicated by three stars (***))
melting point: 259 to 261 °C

SMILES: COCCN1CC=C(c2ccc3cc(-c4cn5cc(C)nc(C)c5n4)oc(=O)c3c2)CC1 [Cpd 92, 3-(6,8-dimethylimidazo[1,2-a]pyrazin-2-yl)-7-[1-(2-methoxyethyl)-1,2,3,6-tetrahydropyridin-4-yl]-1H-isochromen-1-one]
EC (1.5-fold) [1]: ≤ 0.1 µM
EC1.5x for Smn protein expression (Smn protein): **** (an EC1.5×≦0.3 nM is indicated by four stars (****))
maximum fold (Fold) increase of Smn protein (Smn protein): ***** (a fold increase >1.65 is indicated by five stars (*****))
melting point: 174 to 176 °C

SMILES: Cc1cn2cc(-c3cc4ccc(C5=CCN(C6CC6)CC5)cc4c(=O)o3)nc2c(C)n1 [Cpd 93, 7-(1-cyclopropyl-1,2,3,6-tetrahydropyridin-4-yl)-3-(6,8-dimethylimidazo[1,2-a]pyrazin-2-yl)-1H-isochromen-1-one]
EC (1.5-fold) [1]: ≤ 0.1 µM
EC1.5x for Smn protein expression (Smn protein): **** (an EC1.5×≦0.3 nM is indicated by four stars (****))
maximum fold (Fold) increase of Smn protein (Smn protein): ***** (a fold increase >1.65 is indicated by five stars (*****))
melting point: 230 to 232 °C

SMILES: Cc1cn2cc(-c3cc4ccc(C5=CCN(C6CCC6)CC5)cc4c(=O)o3)nc2c(C)n1 [Cpd 94, 7-(1-cyclobutyl-1,2,3,6-tetrahydropyridin-4-yl)-3-(6,8-dimethylimidazo[1,2-a]pyrazin-2-yl)-1H-isochromen-1-one]
EC (1.5-fold) [1]: ≤ 0.1 µM
EC1.5x for Smn protein expression (Smn protein): *** (an EC1.5× between >0.3 nM and ≦1 nM is indicated by three stars (***))
maximum fold (Fold) increase of Smn protein (Smn protein): ***** (a fold increase >1.65 is indicated by five stars (*****))
melting point: 252 to 254 °C

SMILES: CCCN1CC=C(c2ccc3cc(-c4cn5cc(C)nc(C)c5n4)oc(=O)c3c2)CC1 [Cpd 95, 3-(6,8-dimethylimidazo[1,2-a]pyrazin-2-yl)-7-(1-propyl-1,2,3,6-tetrahydropyridin-4-yl)-1H-isochromen-1-one]
EC (1.5-fold) [1]: ≤ 0.1 µM
EC1.5x for Smn protein expression (Smn protein): **** (an EC1.5×≦0.3 nM is indicated by four stars (****))
maximum fold (Fold) increase of Smn protein (Smn protein): ***** (a fold increase >1.65 is indicated by five stars (*****))
melting point: 226 to 228 °C

melting point: 218 to 220 °C
SMILES: Cc1cn2cc(-c3cc4ccc(C5CCNCC5)cc4c(=O)o3)nc2c(C)n1 [Cpd 96, 3-(6,8-dimethylimidazo[1,2-a]pyrazin-2-yl)-7-(piperidin-4-yl)-1H-isochromen-1-one]
EC (1.5-fold) [1]: ≤ 0.1 µM
EC1.5x for Smn protein expression (Smn protein): **** (an EC1.5×≦0.3 nM is indicated by four stars (****))
maximum fold (Fold) increase of Smn protein (Smn protein): ***** (a fold increase >1.65 is indicated by five stars (*****))
